# pIC50: −log10 of the molar value. Activity calls are given as the source filed them.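 The calls were made as follows: active = maximal inhibition of the USP30 enzyme reaching 30% or more across the dose series; inactive = the rest.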
# Biological target: Ubiquitin carboxyl-terminal hydrolase 30 (Homo sapiens) (UniProt Q70CQ3)
# Assay: inhibitors of ubiquitin-specific protease 30 deubiquitylating enzyme, concentration dependence, in vitro biochemical, validation of primary hits (AID 1645865)
# Conditions: purified USP30, Ub-rhodamine cleavage, fluorescence, 2 h
# Chain of Ubiquitin carboxyl-terminal hydrolase 30 (Homo sapiens) (Q70CQ3 whole entry, looked up): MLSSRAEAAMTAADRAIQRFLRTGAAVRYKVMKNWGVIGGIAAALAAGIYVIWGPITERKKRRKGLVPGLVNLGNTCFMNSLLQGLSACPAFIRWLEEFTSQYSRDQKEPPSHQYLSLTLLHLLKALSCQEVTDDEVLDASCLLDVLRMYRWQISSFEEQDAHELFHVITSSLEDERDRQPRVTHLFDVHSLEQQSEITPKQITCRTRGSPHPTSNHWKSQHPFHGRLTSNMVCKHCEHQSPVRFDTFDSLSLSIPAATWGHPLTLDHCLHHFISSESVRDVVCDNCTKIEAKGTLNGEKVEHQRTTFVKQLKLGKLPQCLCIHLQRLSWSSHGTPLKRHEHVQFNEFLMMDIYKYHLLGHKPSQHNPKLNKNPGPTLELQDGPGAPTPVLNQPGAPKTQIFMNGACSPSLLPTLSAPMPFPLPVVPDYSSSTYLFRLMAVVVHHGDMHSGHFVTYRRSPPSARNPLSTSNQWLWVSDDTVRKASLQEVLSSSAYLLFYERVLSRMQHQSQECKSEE
Structure (SMILES),IC50,pIC50
O=C(COC(=O)c1ccc(Cl)cc1)Nc1ccc2[nH]c(=O)[nH]c2c1,,5.40
CCn1c(SCC(=O)c2c(N)n(CC(C)C)c(=O)n(C)c2=O)nnc1-c1ccccc1,,5.01
Cc1ccc(NC(=O)c2cc(=O)n(C)c3c2c(=O)n(C)c(=O)n3C)c(C)c1,> 50 µM (inactive),
CC(=O)c1sc(NC(=O)/C=C/c2ccccc2)nc1-c1ccccc1,,4.75
Cc1ccc(S(=O)(=O)N(C)C)cc1NC(=O)Cc1ccc(Cl)c(Cl)c1,> 50 µM (inactive),
CCc1c(Cl)c(O)c(Cl)c(O)c1C(=O)O[C@H]1C(C)O[C@@H](OC/C2=C\C=C\CC(O)/C(C)=C/C(CC)C(O[C@@H]3OC(C)(C)[C@H](O)C(OC(=O)C(C)C)[C@@H]3O)/C(C)=C/C(C)=C/CC(C(C)O)OC2=O)[C@@H](OC)C1O (some centres undefined),> 50 µM (inactive),
COc1cc2cc3c(c(O)c2c(O)c1-c1c(OC)cc2cc4c(c(O)c2c1O)C(=O)OC1CC(C)OC41)C(=O)OC1CC(C)OC31 (centres undefined),> 50 µM (inactive),
Cc1cc(C)c(NC(=O)CSc2nc3nccnc3c(=O)n2Cc2ccccc2Cl)c(C)c1,,5.41
O=C(COc1cccc(-n2cnnn2)c1)Nc1ccc2c(c1)OCCO2,> 50 µM (inactive),
N#Cc1ccc(NC(=O)c2ccc(S(=O)(=O)N3CCCCC3)cc2)cc1,,5.05
Cc1nn(-c2cccc(F)c2)c2c1c(C)c(CCC(=O)NCc1ccccn1)c(=O)n2C,,5.49
CC(C)c1nc2sc3c(N(CCO)CCO)ncnc3c2c2c1COC(C)(C)C2,> 50 µM (inactive),
Cc1ccc2nc(NC(=O)C3CCCN3S(=O)(=O)c3ccc4c(c3)OCCO4)sc2c1 (centres undefined),> 50 µM (inactive),
COc1ccc(Cl)c(NC(=O)C2CC(=O)Nc3cc(-c4ccccc4)nn32)c1 (centres undefined),,4.88
COc1ccc(C2C(C(=O)Nc3ccccc3OC)=C(C)Nc3nnnn32)cc1Br (centres undefined),,4.55
O=C(c1ccco1)N1CCN=C1SCc1ccccc1F,> 50 µM (inactive),
COc1cc(O)c2c(c1)C1=CC(=O)C(O)=C[C@]1(C)OC2=O,,4.46
CSc1cccc(C(=O)Nc2ccc(-c3nc4ccccc4[nH]3)cc2)c1,,5.54
O=C(Nc1ccccc1)c1nc(-c2cn(Cc3ccc(F)cc3)nn2)no1,,4.54
Cc1ccc(NC2=NC(c3ccco3)n3c(nc(C)cc3=O)N2)c(C)c1 (centres undefined),,5.54
O=S(=O)(c1cccc2cccnc12)N(CCc1ccccc1)C1CCN(CCc2ccc(Cl)cc2)CC1,> 50 µM (inactive),
COc1ccc(CNC(=O)CCc2nnc3n(Cc4ccccc4Cl)c(=O)c4ccccc4n23)cc1,,5.58

Structure (SMILES),IC50,pIC50
N#Cc1c(Cl)cccc1Oc1ccc(S(=O)(=O)N2CCC(O)CC2)cc1,,4.71
CC(C(=O)NCc1ccc(F)cc1)n1cccc1C(=O)c1ccccc1 (centres undefined),> 50 µM (inactive),
O=C(CCCCn1c(=O)c2ccccc2n(Cc2ccccc2F)c1=O)NCCc1ccccc1,,5.09
CC1=C(c2ccc(Cl)cc2)S(=O)(=O)NC1=NCC(=O)Nc1ccc(F)cc1,,4.77
CC(=O)c1ccc(NC(=O)C[n+]2cc(-c3ccc(Cl)cc3)n3c2CCC3)cc1,> 50 µM (inactive),
Cc1cn[nH]c1C1COCCN1C(=O)c1ccc2ncccc2c1 (centres undefined),> 50 µM (inactive),
CC1CCc2c(sc3ncnc(OCc4cccc([N+](=O)[O-])c4)c23)C1 (centres undefined),> 50 µM (inactive),
Cc1ccc(C(=O)Nc2ccc3c(c2)C(=O)N(C)c2ccccc2O3)cc1C,> 50 µM (inactive),
CC(=O)Nc1ccc(S(=O)(=O)NCc2ccc(C(=O)NCc3ccc(C)cc3)cc2)cc1,,4.58
COc1ccc(CCNC(=O)CSc2cn(CCNC(=O)c3ccc(F)cc3)c3ccccc23)cc1OC,,4.70
COc1ccc(C2CC(=O)Nc3ccc4ccccc4c32)c(OC)c1OC (centres undefined),,4.65
Cc1cc(C(=O)COC(=O)c2ccc[nH]c2=O)c(C)n1-c1ccc2c(c1)OCO2,> 50 µM (inactive),
Cc1cccc(C(=O)Nc2ccc3c(c2)nc(CSc2nccc(C)n2)n3C)c1,> 50 µM (inactive),
Cc1ccc2nc(CCc3ccc(NS(=O)(=O)c4cccc(Cl)c4C)cc3)[nH]c2c1,,4.35
CCOC(=O)c1cnn(-c2ccc(C(=O)Nc3ccc(C)c(Cl)c3)cc2)c1N,,5.66
Cc1cc(C(F)(F)F)n(-c2ccc(NC(=O)Nc3cccc(C(F)(F)F)c3)cc2)n1,,5.06
O=C(NCc1ccc(-c2nc3cnccc3o2)cc1)c1ccccc1F,,4.76
N#Cc1cccc(NC(=O)Cn2cccc(-c3nc(-c4ccccc4)no3)c2=O)c1,> 50 µM (inactive),
COc1ccc(-c2nc(CNC(=O)COc3ccc(C)cc3)cs2)cc1,,4.44
COc1ccc(CNC(=O)CN2C(=O)C(C)=C(c3ccc(C)cc3)S2(=O)=O)cc1,> 50 µM (inactive),
Nc1c(C(=O)NCCc2ccccc2)nnn1-c1ccc(F)cc1,,4.51

# Second part, the compound after the results:
IC50,pIC50,Structure (SMILES)
> 50 µM (inactive),,Cc1ccc2c(c1C)NC(=O)[C@]21[C@@H]2C(=O)N(c3cc(Cl)ccc3Cl)C(=O)[C@@H]2[C@@H]2CCCN21
,4.86,Cn1c(-c2nnc(SCC(=O)Nc3ccccc3F)o2)cc2ccccc21
> 50 µM (inactive),,COc1cccc(CNC(=O)C2=Cc3cccc(OC)c3OC2)c1
> 50 µM (inactive),,O=C(O)C1CCN(Cc2c(-c3ccco3)nc3ccc(Cl)cn23)CC1
> 50 µM (inactive),,Cc1ccc(-c2ccc(N3CCOCC3)nn2)cc1S(=O)(=O)N1CCOCC1
,4.49,Cc1nn(-c2cccc(F)c2)c2c1C(C(=O)c1ccc(Cl)s1)CC(=O)N2 (centres undefined)
> 50 µM (inactive),,O=C(Nc1ccc2c(c1)OCCO2)Nc1nnc(CC(=O)N2CCCCC2)s1
> 50 µM (inactive),,O=C1Cc2ccccc2C(=O)N1c1ccc2c(c1)OCO2
,4.65,O=C(CN1CCCCC1)Nc1nnc(-c2ccc([N+](=O)[O-])cc2)s1
> 50 µM (inactive),,CC1CCc2c(sc3ncnc(NC4CCN(CC(N)=O)CC4)c23)C1 (centres undefined)
,4.64,O=C(CCn1c(=O)c2sccc2n(CC(=O)OCc2ccccc2)c1=O)NCc1ccc2c(c1)OCO2
,5.34,CC(=O)c1cc2c(=O)c3c(C(=O)O)c(O)c(O)cc3oc2c(C(C)=O)c1-c1coc2cc(O)c(O)c(C(=O)O)c2c1=O
,4.47,Cc1ccc2nc(CNC(=O)c3ccccc3-c3nc(-c4ccc(F)cc4)no3)[nH]c2c1
> 50 µM (inactive),,COc1ccc(CNC(=O)C(C)n2nc(-c3ccco3)c(-c3cc(C)no3)cc2=O)cc1 (centres undefined)
> 50 µM (inactive),,CC(CCc1ccccc1)NC(=O)C(=O)c1cn(CC(=O)N2CCOCC2)c2ccccc12 (centres undefined)
> 50 µM (inactive),,Cc1ccc2c(Nc3ccc(CC(=O)O)cc3)c(C(=O)N3CCCC3)cnc2n1
> 50 µM (inactive),,COc1cc(NC(=O)Cn2c(=O)n(-c3ccc(CC(=O)NC4CCCC4)cc3)c(=O)c3ccccc32)cc(OC)c1
,5.31,Cc1cc(N2CCN(c3ncccn3)CC2)nc2ccc(NC(=O)/C=C/c3ccccc3Cl)cc12
,5.19,COc1ccccc1-c1nc(-c2cn(-c3ccc(C)cc3)nn2)no1
> 50 µM (inactive),,Cc1noc(C)c1COc1cccc(C(=O)Nc2cc(Cl)ccc2-n2cncn2)c1
> 50 µM (inactive),,Cc1c(CC(=O)Nc2nn[nH]n2)c(=O)oc2cc3c(cc12)CCC1(CCCCC1)O3
,4.80,O=C(NCc1ccccc1)c1ccc2c(=O)n(-c3ccccc3)c(=O)[nH]c2c1
> 50 µM (inactive),,CC1CCN(S(=O)(=O)c2ccc3[nH]cc(C(=O)NCc4ccco4)c(=O)c3c2)CC1
,4.75,Cc1ccc2[nH]c3c(=O)n(CC4CCCO4)cnc3c2c1 (centres undefined)
> 50 µM (inactive),,CC(=O)CN1CC2(CCN(Cc3ccc(F)cc3)CC2)COc2ccccc2S1(=O)=O
> 50 µM (inactive),,CC(C)N(C(=O)Cn1c(=O)[nH]c2ccccc21)c1ccccc1

IC50,pIC50,Structure (SMILES)
,4.52,O=C(NCc1ccc(Br)cc1)c1ccc(-c2cccnc2)nc1
> 50 µM (inactive),,COc1cc(O)c2c(O)c3c(cc2c1)CC(C)OC3=O (centres undefined)
> 50 µM (inactive),,COc1cccc(C(=O)NCc2[nH]nc3ccccc23)c1
,4.70,O=C1CC(C(=O)Nc2ccccc2Cl)n2nc(-c3ccccc3)cc2N1 (centres undefined)
> 50 µM (inactive),,COc1ccc(C(=O)Nc2cc3c4c(c2)C(C)C(=O)N4CCC3)cc1 (centres undefined)
,4.63,CCn1c(SCC(=O)N2c3ccccc3CC2C)nnc1-c1ccc2c(c1)OCCO2 (centres undefined)
> 50 µM (inactive),,O=C(NC1CC1)c1ccnn1-c1ccc2ccc(-c3ccncc3)cn12
> 50 µM (inactive),,O=C(CSc1ncnc2c1sc1cccc(F)c12)N1CCCCCC1
,4.66,O=C(CCCCn1c(=O)[nH]c2ccccc2c1=O)Nc1cccc(Cl)c1
,5.11,O=C(Nc1ccccc1)c1ccc2c(c1)CC(c1ccccc1)OC2=O (centres undefined)
> 50 µM (inactive),,CC1CCCN1C(=O)c1ccn(-c2ccc3ccc(-c4cccnc4)cn23)n1 (centres undefined)
> 50 µM (inactive),,c1coc(CNc2nc(Nc3cccc4ccccc34)nc3ccccc23)c1
> 50 µM (inactive),,COc1ccccc1OCC(=O)Nc1ccc2c(c1)CCC(=O)N2Cc1ccccc1
> 50 µM (inactive),,COc1ccc(C(C)=O)cc1CC(=O)Nc1nc2ccccc2[nH]1
,5.73,COc1ccc(NC(=O)CNC(=O)c2ccc3nc(-n4cccc4)sc3c2)cc1
,4.66,CSc1ncc(C(=O)NC(C)c2ccccc2)c(-c2ccccc2)n1 (centres undefined)
> 50 µM (inactive),,O=C(Nc1cccc(Cl)c1)N1CCC(c2cc(-c3ccco3)n[nH]2)CC1
> 50 µM (inactive),,CSc1ccc(CNCc2c(C(=O)O)n(Cc3ccccc3)c3cc(C)ccc23)cc1
,4.53,Cc1ccc(Nc2nc(NCCc3ccccc3)nc3c2cnn3C)cc1
> 50 µM (inactive),,CCCc1nc2sc3c(NCCc4ccc(OC)c(OC)c4)ncnc3c2c2c1CCC2
> 50 µM (inactive),,CCCc1c(C(=O)O)c(O[C@H]2O[C@H](C)[C@@H](OC)[C@H](OC)[C@@H]2OC)cc2cc3c(c(O)c12)C(=O)c1c(O)cc(O[C@@H]2O[C@@H](C)[C@H](O[C@H]4O[C@H](C)[C@@H](OC)[C@H](OC)[C@@H]4O)[C@@H](OC)[C@H]2O)cc1C3=O
,5.29,COc1cccc(NC(=O)CSc2nnc(-c3cc4cccc(OC)c4o3)n2C)c1
> 50 µM (inactive),,CSc1nc(Cc2ccc(Cl)cc2)nc2ccccc12
> 50 µM (inactive),,Cc1cccc(N2CCN(C(=O)c3nnn(-c4ccc(F)cc4)n3)CC2)c1
,4.87,CCOc1ccc(Nc2cc(C(=O)NCCc3ccccc3)c3ccccc3n2)cc1
